{
  "source": "ChEMBL document CHEMBL1151670",
  "about": "“A new quassinoid from Castela texana” (J Nat Prod, 1996)",
  "key": {"K562 [1]": {"system": "K562", "experiment": "Cytotoxicity against human K562 cells at <=10 ug/ml after 2 to 7 days by neutral red assay", "assay_type": "functional, cell-based"}, "KB [2]": {"system": "KB", "experiment": "Cytotoxicity against human KB cells <=10 ug/ml after 2 to 7 days by neutral red assay", "assay_type": "functional, cell-based"}, "BT-549 [3]": {"system": "BT-549", "experiment": "Cytotoxicity against human BT549 cells <=10 ug/ml after 2 to 7 days by neutral red assay", "assay_type": "functional, cell-based"}, "SK-OV-3 [4]": {"system": "SK-OV-3", "experiment": "Cytotoxicity against human SKOV3 cells <=10 ug/ml after 2 to 7 days by neutral red assay", "assay_type": "functional, cell-based"}, "Vero [5]": {"system": "Vero", "experiment": "Cytotoxicity against african green monkey Vero cells <=10 ug/ml after 2 to 7 days by neutral red assay", "assay_type": "cell-based", "conditions": "chlorocebus sabaeus"}, "Plasmodium falciparum [6]": {"system": "Plasmodium falciparum", "experiment": "Antimalarial activity against chloroquine-sensitive Plasmodium falciparum D6 after 48 hrs as LDH activity by Makler assay", "assay_type": "functional, organism-based", "conditions": "D6, 48 h"}, "Plasmodium falciparum [7]": {"system": "Plasmodium falciparum", "experiment": "Antimalarial activity against chloroquine-resistant Plasmodium falciparum W2 after 48 hrs as LDH activity by Makler assay", "assay_type": "functional, organism-based", "conditions": "W2, 48 h"}, "Giardia intestinalis": {"system": "Giardia intestinalis", "experiment": "Antiparasitic activity against Giardia intestinalis ATCC 30888 at <=20 ug/ml after 24 hrs by XTT assay", "assay_type": "functional, organism-based", "conditions": "Giardia duodenalis"}, "Crithidia fasciculata": {"system": "Crithidia fasciculata", "experiment": "Trypanocidal activity against Crithidia fasciculata ATCC 11745 at <=20 ug/ml after 48 hrs by SRB assay", "assay_type": "functional, organism-based"}, "Plasmodium falciparum [8]": {"system": "Plasmodium falciparum", "experiment": "Antimalarial activity against chloroquine-sensitive Plasmodium falciparum D6 at <=10 ug/ml after 48 hrs as LDH activity by Makler assay", "assay_type": "functional, organism-based"}, "Plasmodium falciparum [9]": {"system": "Plasmodium falciparum", "experiment": "Antimalarial activity against chloroquine-resistant Plasmodium falciparum W2 at <=10 ug/ml after 48 hrs as LDH activity by Makler assay", "assay_type": "functional, organism-based"}, "K562 [10]": {"system": "K562", "experiment": "Cytotoxicity against human K562 cells after 2 to 7 days by neutral red assay", "assay_type": "functional, cell-based"}, "KB [11]": {"system": "KB", "experiment": "Cytotoxicity against human KB cells after 2 to 7 days by neutral red assay", "assay_type": "functional, cell-based"}, "BT-549 [12]": {"system": "BT-549", "experiment": "Cytotoxicity against human BT549 cells after 2 to 7 days by neutral red assay", "assay_type": "functional, cell-based"}, "SK-OV-3 [13]": {"system": "SK-OV-3", "experiment": "Cytotoxicity against human SKOV3 cells after 2 to 7 days by neutral red assay", "assay_type": "functional, cell-based"}, "Vero [14]": {"system": "Vero", "experiment": "Cytotoxicity against african green monkey Vero cells after 2 to 7 days by neutral red assay", "assay_type": "cell-based", "conditions": "chlorocebus sabaeus"}},
  "note": "Active and inactive are the calls of the source. The calls are words filed in the database; no cut-off is given here.",
  "data": [
    {"smiles": "C[C@@H]1C[C@H](O)C(=O)[C@]2(C)[C@H]3[C@H](OC(=O)/C=C/c4ccc(O)cc4)C(=O)[C@H](C)[C@@H]4CC(=O)O[C@H](C[C@@H]12)[C@]34C", "values": [
      {"measurement": "Activity", "setting": "K562 [1]", "value": "inactive"},
      {"measurement": "Activity", "setting": "KB [2]", "value": "inactive"},
      {"measurement": "Activity", "setting": "BT-549 [3]", "value": "inactive"},
      {"measurement": "Activity", "setting": "SK-OV-3 [4]", "value": "inactive"},
      {"measurement": "Activity", "setting": "Vero [5]", "value": "Not Active"},
      {"measurement": "IC50", "setting": "Plasmodium falciparum [6]", "value": 0.92, "unit": "µg/mL"},
      {"measurement": "IC50", "setting": "Plasmodium falciparum [7]", "value": 0.75, "unit": "µg/mL"},
      {"measurement": "Activity", "setting": "Giardia intestinalis", "value": "inactive"},
      {"measurement": "Activity", "setting": "Crithidia fasciculata", "value": "inactive"}
    ]},
    {"smiles": "CC1=C[C@H](O)[C@@H](O)[C@]2(C)[C@H]3[C@]4(O)OC[C@]35[C@H]([C@@H](C)[C@H]4O)[C@@H](O[C@@H]3O[C@H](CO)[C@@H](O)[C@H](O)[C@H]3O)C(=O)O[C@@H]5C[C@@H]12", "values": [
      {"measurement": "Activity", "setting": "K562 [1]", "value": "inactive"},
      {"measurement": "Activity", "setting": "KB [2]", "value": "inactive"},
      {"measurement": "Activity", "setting": "BT-549 [3]", "value": "inactive"},
      {"measurement": "Activity", "setting": "SK-OV-3 [4]", "value": "inactive"},
      {"measurement": "Activity", "setting": "Vero [5]", "value": "Not Active"},
      {"measurement": "Activity", "setting": "Plasmodium falciparum [8]", "value": "inactive"},
      {"measurement": "Activity", "setting": "Plasmodium falciparum [9]", "value": "inactive"}
    ]},
    {"smiles": "C[C@@H]1C[C@H](O)C(=O)[C@]2(C)[C@H]3[C@H](O)C(=O)[C@H](C)[C@@H]4CC(=O)O[C@H](C[C@@H]12)[C@]34C", "note": "[AMAROLIDE]", "values": [
      {"measurement": "Activity", "setting": "K562 [1]", "value": "inactive"},
      {"measurement": "Activity", "setting": "KB [2]", "value": "inactive"},
      {"measurement": "Activity", "setting": "BT-549 [3]", "value": "inactive"},
      {"measurement": "Activity", "setting": "SK-OV-3 [4]", "value": "inactive"},
      {"measurement": "Activity", "setting": "Vero [5]", "value": "Not Active"},
      {"measurement": "Activity", "setting": "Plasmodium falciparum [8]", "value": "inactive"},
      {"measurement": "Activity", "setting": "Plasmodium falciparum [9]", "value": "inactive"}
    ]},
    {"smiles": "CC1=CC(=O)[C@@H](O)[C@]2(C)[C@H]3[C@@]4(O)OC[C@@]35[C@@H](C[C@@H]12)OC(=O)C[C@H]5[C@@H](C)[C@H]4O", "note": "[CHAPARRINONE]", "values": [
      {"measurement": "IC50", "setting": "K562 [10]", "value": 1.8, "unit": "µg/mL"},
      {"measurement": "IC50", "setting": "KB [11]", "value": 1.2, "unit": "µg/mL"},
      {"measurement": "IC50", "setting": "BT-549 [12]", "value": 0.8, "unit": "µg/mL"},
      {"measurement": "IC50", "setting": "SK-OV-3 [13]", "value": 0.5, "unit": "µg/mL"},
      {"measurement": "IC50", "setting": "Vero [14]", "value": 1.5, "unit": "µg/mL"},
      {"measurement": "IC50", "setting": "Plasmodium falciparum [6]", "value": 0.25, "unit": "µg/mL"},
      {"measurement": "IC50", "setting": "Plasmodium falciparum [7]", "value": 0.2, "unit": "µg/mL"}
    ]},
    {"smiles": "CC1=C[C@H](O)[C@@H](O)[C@]2(C)[C@H]3[C@@]4(O)OC[C@@]35[C@@H](C[C@@H]12)OC(=O)C[C@H]5[C@@H](C)[C@H]4O", "note": "[CHAPARRIN]", "values": [
      {"measurement": "Activity", "setting": "K562 [1]", "value": "inactive"},
      {"measurement": "Activity", "setting": "KB [2]", "value": "inactive"},
      {"measurement": "Activity", "setting": "BT-549 [3]", "value": "inactive"},
      {"measurement": "Activity", "setting": "SK-OV-3 [4]", "value": "inactive"},
      {"measurement": "Activity", "setting": "Vero [5]", "value": "Not Active"},
      {"measurement": "IC50", "setting": "Plasmodium falciparum [6]", "value": 0.25, "unit": "µg/mL"},
      {"measurement": "IC50", "setting": "Plasmodium falciparum [7]", "value": 0.35, "unit": "µg/mL"}
    ]},
    {"smiles": "COc1cccc2c1C(=O)c1c(O)c3c(c(O)c1C2=O)C[C@@](O)(C(=O)CO)C[C@@H]3O[C@H]1C[C@H](N)[C@H](O)[C@H](C)O1", "note": "[DOXORUBICIN]", "values": [
      {"measurement": "IC50", "setting": "K562 [10]", "value": 0.035, "unit": "µg/mL"},
      {"measurement": "IC50", "setting": "KB [11]", "value": 0.12, "unit": "µg/mL"},
      {"measurement": "IC50", "setting": "BT-549 [12]", "value": 0.008, "unit": "µg/mL"},
      {"measurement": "IC50", "setting": "SK-OV-3 [13]", "value": 0.01, "unit": "µg/mL"},
      {"measurement": "IC50", "setting": "Vero [14]", "value": 1.5, "unit": "µg/mL"}
    ]},
    {"smiles": "CC1=CC(=O)[C@@H](O)[C@]2(C)[C@H]3[C@]4(O)OC[C@]35[C@H]([C@@H](C)[C@H]4O)[C@@H](O)C(=O)O[C@@H]5C[C@@H]12", "note": "[GLAUCARUBOLONE]", "values": [
      {"measurement": "IC50", "setting": "K562 [10]", "value": 0.6, "unit": "µg/mL"},
      {"measurement": "IC50", "setting": "KB [11]", "value": 1, "unit": "µg/mL"},
      {"measurement": "IC50", "setting": "BT-549 [12]", "value": 0.4, "unit": "µg/mL"},
      {"measurement": "IC50", "setting": "SK-OV-3 [13]", "value": 0.8, "unit": "µg/mL"},
      {"measurement": "IC50", "setting": "Vero [14]", "value": 1.5, "unit": "µg/mL"},
      {"measurement": "IC50", "setting": "Plasmodium falciparum [6]", "value": 0.125, "unit": "µg/mL"},
      {"measurement": "IC50", "setting": "Plasmodium falciparum [7]", "value": 0.2, "unit": "µg/mL"}
    ]},
    {"smiles": "CC(=O)O[C@H]1C(=O)O[C@@H]2C[C@H]3C(C)=CC(=O)[C@@H](O)[C@]3(C)[C@H]3[C@]4(O)OC[C@]32[C@@H]1[C@@H](C)[C@H]4O", "note": "[HOLACANTHONE]", "values": [
      {"measurement": "IC50", "setting": "K562 [10]", "value": 1, "unit": "µg/mL"},
      {"measurement": "IC50", "setting": "KB [11]", "value": 0.5, "unit": "µg/mL"},
      {"measurement": "IC50", "setting": "BT-549 [12]", "value": 0.3, "unit": "µg/mL"},
      {"measurement": "IC50", "setting": "SK-OV-3 [13]", "value": 0.5, "unit": "µg/mL"},
      {"measurement": "IC50", "setting": "Vero [14]", "value": 1, "unit": "µg/mL"},
      {"measurement": "IC50", "setting": "Plasmodium falciparum [6]", "value": 0.01, "unit": "µg/mL"},
      {"measurement": "IC50", "setting": "Plasmodium falciparum [7]", "value": 0.012, "unit": "µg/mL"}
    ]}
  ]
}
